According to patent US10106565B2 (priority 2008, dated 2018):

Legend:
[1] = system: human monocytes; experiment: Quantitative RT-PCR of mRNA expression in dendrimer-activated monocytes; assay type: cell-based; conditions: 20 μM, 6 hours; da-monocytes vs untreated monocytes, 6 donors
Procedure: For genechip analysis, 10×10^6 monocytes from 3 donors (and from 3 more donors for quantitative PCR) are cultured in 25 cm^2 dishes. They are stimulated with 20 μM of dendrimer for 6 hours or remain untreated (control cells).
Total RNA are purified as described above, and 5 μg are used to synthesize single-strand cDNA using M-MLV reverse transcriptase RNase H Minus (Promega), according to the manufacturer's instructions. Quantitative RT-PCR is then performed using the Platinium SYBR Green qPCR SuperMix UDG (Invitrogen) with forward and reverse primers at a final concentration of 300 nM. The primers are designed using Primer Express software from mRNA sequences submitted to Ensembl data base, and are listed in FIG. 7. Quantification of the different mRNA is performed on a 7000 Sequence Detection System (Applied Biosystems). PCR amplification begins with 1 cycle of 50° C. for 2 minutes and 95° C. for 10 minutes, followed with 40 cycles of denaturation at 95° C. for 15 seconds and annealing/extension at 60° C. for 60 seconds. All experiments are performed in duplicate. For each donor, the relative expression is calculated as 2^−ΔΔCt where ΔΔCt is the difference between ΔCt of the sample and the ΔCt of the reference consisting of the control monocytes. ΔCt is the difference between the Ct of the target gene and the GAPDH gene. For statistical analysis, a one-tailed paired t test is performed comparing the ΔCt values for the da-monocytes and the corresponding control monocytes with Sigma Stat software (Systat Software).

[2] = system: CD4 T cells; experiment: Allogenic mixed leucocyte reaction (MLR) with activated monocytes; assay type: cell-based, human; conditions: 20 μM, 24 hours activation; PBL:monocyte ratios 4:1 to 100:1; vs alt- and class-monocytes
Procedure: For the functional experiments, freshly purified monocytes are cultured in 6-well plates. The cells are stimulated for 24 hours (immunophenotyping by flow cytometry analyses, MLR) or 96 hours (CD206 detection) with different stimuli or remain untreated (control). Dendrimer-activated monocytes (da-monocytes) are obtained with 20 μM of the dendrimer Gc1, alternatively-activated monocytes (alt-monocytes) with 10 U/mL recombinant human IL4 (Peprotech). The classical activation of monocytes is obtained by priming the cells over night (18 hours) with 100 U/mL of human recombinant IFN-γ (R&D Systems) and, after a washing step in PBS, by stimulation with 10 ng/mL LPS from E. coli 011/B4 strain (InvivoGen) for the remaining 6 hours or […].
MLR are performed in 96-well round bottom plates in a total volume of 200 μL in complete RPMI 1640 medium. […] The proliferation of the CD4 T cells is analyzed by measuring the cytoplasmic dilution of CFSE (as described in 5.1. Methods). […] Then, CFSE dilution is analyzed by flow cytometry to measure the proliferation of alloantigen-induced CD4 T cells. After gating for CD4 positive cells CFSE fluorescence intensities are analyzed, and the percentage of CD4 T cells which have proliferated during the MLR is taken into account. […] The overall differences are evaluated by analysis of variance test (ANOVA) with Sigma Stat software (Systat Software).

[3] = system: osteoclasts differentiated from human monocytes on bone matrix; experiment: Bone resorption in vitro (Crosslaps assay, CTX release); assay type: cell-based; conditions: for inhibition at 0.2 µM: 200 nM in differentiating medium; for inhibition at 20 µM: Monocyte, monocytes pre-incubated (6 hours, 20 μM) before differentiation
Procedure: PBMC from adult healthy volunteers are prepared as described in example 1.
Monocytes are then purified as described in section 4.2.
Monocytes were cultured in bone matrix 96-well plates (OsteoAssay Human bone plate, Lonza, USA) and differentiated into osteoclasts in the presence of M-CSF and sRANK-Ligand as described in section 4.2. Supernatants were collected and bone resorption was evaluated using a Crosslaps assay (Nordicbioscience, Danemark) which measures collagen degradation fragments.

[4] = system: IL-1ra−/− mice; experiment: Spontaneous arthritis in IL-1ra-/- mice; assay type: in vivo; conditions: 10 mg/kg weekly intravenous from 8 weeks of age; at the age of 15 weeks
Excerpt: Dendrimer ABP (azabisphosphonate) or Gc1 (FIG. 16A) was initially compared to two other dendrimer-based systems, dendrimer azamonophosphonate (AMP) and dendrimer polypropyleneimine (PPI), for antiarthritic activity in mice, according to the following protocole, described by Hayder et al. Science Transl. Med. 2011, 3, 81ra35.
IL-1ra−/− mice develop spontaneous arthritis beginning at 4 weeks of age. By 10 weeks, 100% of mice show full-blown disease, with marked paw swelling. We assessed the effect of dendrimers ABP, AMP, and PPI in this model of arthritis via weekly intravenous injections (10 mg/kg) starting at 8 weeks of age. The evolution of inflammation and arthritis was followed by measuring the hind paw swelling and by clinical arthritic score. The arthritic score per animal was the sum of the scores attributed to the four paws (28).

[5] = system: CD4+ T cells; experiment: Intracellular detection of IL10 in CD4+ T cells after MLR; assay type: cell-based, human; conditions: PBL:monocytes 4:1, 5 hours re-stimulation; compared to MLR with class-monocytes
Procedure: Six days following the primary stimulation with one of the differently activated monocytes at a ratio of PBL:monocytes of 4:1, cells were restimulated with 10000 anti-CD 3/anti-CD28 beads for 5 hours (according to the technical description by J. P. Edwards et al., (2006) J Leukoc Biol 80, 1298-1307) and with 10 μg/mL Brefeldin A (Sigma-Aldrich) to inhibit cytokine secretion. Cells are then harvested, washed with PBS and incubated 15 minutes at 4° C. with mouse mAb anti-human CD4-PE (clone 13B8.2, Beckman-Coulter) in PBS with 5% FCS. Cells washed twice, are then fixed by 2% paraformaldehyde in PBS and permeabilized with 1% saponin in PBS. Intracellular staining is performed with AlloPhycoCyanin-conjugated rat anti-human IL10 (clone JES3-19F1, BD Bioscience) for 30 minutes at 4° C. in PBS with 1% saponin and analyzed by flow cytometry. Each condition is done in triplicate and results are expressed as the mean±SD. Intracellular IL10 mean fluorescence intensity (mfi) means across the differently activated monocytes are compared by one-way analysis of variance, the comparisons between CD4^+/CFSE^− and CD4^+/CFSE^+ cells are done with Student's t-test using Sigma Stat software (Systat Software).

Q: CN(/N=C/c1ccc(OP2(Oc3ccc(/C=N/N(C)P(=S)(Oc4ccc(CCN(CP(=O)(O)O)CP(=O)(O)O)cc4)Oc4ccc(CCN(CP(=O)(O)O)CP(=O)(O)O)cc4)cc3)=NP(Oc3ccc(/C=N/N(C)P(=S)(Oc4ccc(CCN(CP(=O)(O)O)CP(=O)(O)O)cc4)Oc4ccc(CCN(CP(=O)(O)O)CP(=O)(O)O)cc4)cc3)(Oc3ccc(/C=N/N(C)P(=S)(Oc4ccc(CCN(CP(=O)(O)O)CP(=O)(O)O)cc4)Oc4ccc(CCN(CP(=O)(O)O)CP(=O)(O)O)cc4)cc3)=NP(Oc3ccc(/C=N/N(C)P(=S)(Oc4ccc(CCN(CP(=O)(O)O)CP(=O)(O)O)cc4)Oc4ccc(CCN(CP(=O)(O)O)CP(=O)(O)O)cc4)cc3)(c3ccc(/C=N/N(C)P(=S)(Oc4ccc(CCN(CP(=O)(O)O)CP(=O)(O)O)cc4)Oc4ccc(CCN(CP(=O)(O)O)CP(=O)(O)O)cc4)cc3)=N2)cc1)P(=S)(Oc1ccc(CCN(CP(=O)(O)O)CP(=O)(O)O)cc1)Oc1ccc(CCN(CP(=O)(O)O)CP(=O)(O)O)cc1 (centres unmarked) [Gc1] was tested. Which “mRNA expression of CCL5” value [1] did it give?
A: significantly under-expressed

Q: What about the “mRNA expression of alternative activation genes MRC1, IL1 RN, IL10, CCL18 and CD23” value [1] of the same molecule?
A: significantly up-regulated

Q: And the “mRNA expression of classical activation genes IL1β, IL6 and IL12” value [1]?
A: not significantly modified

Q: What about the “MLR activation (divided CD4+ T lymphocytes) by da-monocytes” value [2] of the same molecule?
A: lowest activating effect on MLR

Q: And the inhibition at 0.2 µM ([3]; 288 h, day 12)?
A: ~60%

Q: What about the inhibition at 0.2 µM ([3]; 360 h, day 15) of the same molecule?
A: ~80%

Q: And the inhibition at 20 µM ([3]; day 12)?
A: ~80%

Q: What about the inhibition at 20 µM ([3]; day 15) of the same molecule?
A: ~50%

Q: What about the arthritic score [4] of the same molecule?
A: significant decrease

Q: What about the paw swelling [4] of the same molecule?
A: significant decrease

Q: What about the “production of IL10 by divided CD4+ T cells in MLR with da-monocytes” value [5] of the same molecule?
A: significantly enhanced
